Reference: patent US9353092B2, “Synthesis and use of croconaine compounds” (University of Notre Dame du Lac, priority 2013, dated 2016)

Columns and labels:
Format in all cases: physicochemical
[1] = Photobleaching / photostability under near-infrared laser irradiation; conditions: 4:1 MeOH/H2O; for Heating effect during extended near-infrared irradiation: 780 nm, 250 mW, 15 minute, 1.67 μg/mL croconaine 1, 2.00 μg/mL ICG, FIG. 13; for Change in absorbance after laser irradiation: FIGS. 14 and 15
Procedure: These experiments were conducted in 4:1 MeOH/H2O, with 1.67 μg/mL of croconaine 1 and 2.00 μg/mL of ICG respectively. This difference in compound photobleaching was confirmed with studies that looked at changes in the compound absorption signal.

[2] = Laser photothermal heating of a solution (temperature change by thermocouple); conditions: for ΔT (temperature change during laser irradiation): 780 nm
Source text: This example describes a method of using compound 1 to increase the temperature of a solution. […] An Omega hypodermic thermocouple (HYPO-33-1-T-G-60-SMPW-M) was placed in the solution and the temperature measured using the associated USB converter. The Ti:Sapphire laser beam was aligned to pass through the solution (above the stirrer and avoiding close contact with the thermocouple) in an identical manner in every experiment. The laser wavelength was set at 780 and the power controlled to be 250 mW during all of the experiments, with a beam diameter of 0.3 cm.
[…] An Omega hypodermic thermocouple (HYPO-33-1-T-G-60-SMPW-M) was placed in the solution and the temperature measured using the associated USB converter. The Ti:Sapphire laser beam was aligned to pass through the solution (above the stirrer and avoiding close contact with the thermocouple) in an identical manner in every experiment. The laser wavelength was set at 780 or 808 nm and the power controlled to be 250 mW during all of the experiments, with a beam diameter of 0.3 cm.

[3] = Absorbance of solutions in 4:1 MeOH/H2O; conditions: 780 nm
[4] = 810 nm, 900 s, 260 mW, 0.005 mg/mL

SMILES: CC1(C)C(/C=C/C=C/C=C/C=C2\N(CCCCS(=O)(=O)O)c3ccc4ccccc4c3C2(C)C)=[N+](CCCCS(=O)(=O)[O-])c2ccc3ccccc3c21 [ICG, indocyanine green]
- Heating effect during extended near-infrared irradiation [1]: loss of heating effect due to photobleaching
- Decrease in the absorbance after laser irradiation ([1]; 810 nm, 900 s, 260 mW, 0.005 mg/mL, FIG. 15): ~50%
- Change in absorbance after laser irradiation [1, 4]: drop

SMILES: C#CCOCCN(Cc1ccccc1)c1ccc(C2=C([O-])/C(=C3C=C/C(=[N+](\CCOCC#C)Cc4ccccc4)S\3)C(=O)C2=O)s1 [Compound 2]
- Ability to increase the temperature of a solution ([2]; 2.0 or 50.0 μg/mL, 4:1 MeOH/H2O, 780 or 808 nm, 250 mW): same ability as compound 1

SMILES: C#CCOCCN(CC)c1ccc(C2=C([O-])/C(=C3C=C/C(=[N+](/CC)CCOCC#C)S\3)C(=O)C2=O)s1 [Compound 1]
- A (absorbance value) ([3]; 0.10 μg/mL): 0.04
- A (absorbance value) ([3]; 0.25 μg/mL): 0.11
- A (absorbance value) ([3]; 0.50 μg/mL): 0.22
- A (absorbance value) ([3]; 1.00 μg/mL): 0.46
- A (absorbance value) ([3]; 1.67 μg/mL): 0.73
- A (absorbance value) ([3]; 2.50 μg/mL): 1.13
- A (absorbance value) ([3]; 5.00 μg/mL): 2.24
- A (absorbance value) ([3]; 50.0 μg/mL, estimated): ~22.4 (est)
- Concentration dependence of absorbance ([3]; FIGS. 8 and 9): obeys the Beer-Lambert Law
- Heating effect during extended near-infrared irradiation [1]: no heating effect loss
- Change in absorbance after laser irradiation [1, 4]: no change
- ΔT (temperature change during laser irradiation) ([2]; 0.10 μg/mL, 4:1 MeOH/H2O, 250 mW): 0.1 °C
- ΔT (temperature change during laser irradiation) ([2]; 0.25 μg/mL, 4:1 MeOH/H2O, 250 mW): 2.0 °C
- ΔT (temperature change during laser irradiation) ([2]; 0.50 μg/mL, 4:1 MeOH/H2O, 250 mW): 3.4 °C
- ΔT (temperature change during laser irradiation) ([2]; 1.00 μg/mL, 4:1 MeOH/H2O, 250 mW): 7.2 °C
- ΔT (temperature change during laser irradiation) ([2]; 1.67 μg/mL, 4:1 MeOH/H2O, 250 mW): 9.8 °C
- ΔT (temperature change during laser irradiation) ([2]; 2.50 μg/mL, 4:1 MeOH/H2O, 250 mW): 10.4 °C
- ΔT (temperature change during laser irradiation) ([2]; 5.00 μg/mL, 4:1 MeOH/H2O, 250 mW): 11.0 °C
- ΔT (temperature change during laser irradiation) ([2]; 50.0 μg/mL, 4:1 MeOH/H2O, 250 mW): 11.3 °C
- Heating on laser irradiation at different wavelengths ([2]; 4:1 MeOH/H2O, 0.05 mg/mL for laser experiments, FIG. 12): proportional to the amount of light absorbed
- Dependence of heating on absorbance ([2]; 780 nm laser light, Table 1, FIGS. 10 and 11): linear with absorbance from about A=0 until about A=1
